From ChEMBL document CHEMBL5244278, “Bioisosteres of the Phenyl Ring: Recent Strategic Applications in Lead Optimization and Drug Design” (J Med Chem, 2021)
Converted amounts (≈) assume the structure as drawn.

Assays:
[1] = Inhibition of MAPK (unknown origin); design: species or system Homo sapiens
physchem [2] = conditions: buffer, pH 7.4
[3] = Solubility of compound at pH 6.8 by RapidFire mass spectrometry; assay type: physicochemical; conditions: buffer
[4] = Solubility of the compound in FaSSIF at pH 6.8 by RapidFire mass spectrometry; assay type: ADME; conditions: simulated gi fluid
[5] = Clearance in rat liver microsomes; assay type: ADME, Microsome
CYP3A4 = CYP3A4 (Homo sapiens, UniProt P08684); test: (§1) Inhibition of CYP3A4 (unknown origin); assay type: ADME
CYP3A4, sequence (P08684 whole entry): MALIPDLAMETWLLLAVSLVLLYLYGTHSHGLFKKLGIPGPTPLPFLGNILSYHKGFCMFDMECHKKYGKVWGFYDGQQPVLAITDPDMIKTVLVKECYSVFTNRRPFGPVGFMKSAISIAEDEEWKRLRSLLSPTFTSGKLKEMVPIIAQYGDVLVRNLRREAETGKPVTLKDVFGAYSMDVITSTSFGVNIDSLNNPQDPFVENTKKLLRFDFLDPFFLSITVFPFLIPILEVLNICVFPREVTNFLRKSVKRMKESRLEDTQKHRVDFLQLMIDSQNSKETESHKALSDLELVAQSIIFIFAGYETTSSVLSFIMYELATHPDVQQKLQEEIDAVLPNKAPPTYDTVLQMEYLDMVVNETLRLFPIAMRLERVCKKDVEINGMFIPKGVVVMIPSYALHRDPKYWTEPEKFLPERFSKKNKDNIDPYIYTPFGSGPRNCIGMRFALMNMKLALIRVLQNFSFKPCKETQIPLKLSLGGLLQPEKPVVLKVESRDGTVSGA

[6] = biological target: Voltage-gated inwardly rectifying potassium channel KCNH2 (Homo sapiens, UniProt Q12809); test: (§2) Inhibition of hERG channel; assay type: toxicity
Voltage-gated inwardly rectifying potassium channel KCNH2, sequence (Q12809 whole entry): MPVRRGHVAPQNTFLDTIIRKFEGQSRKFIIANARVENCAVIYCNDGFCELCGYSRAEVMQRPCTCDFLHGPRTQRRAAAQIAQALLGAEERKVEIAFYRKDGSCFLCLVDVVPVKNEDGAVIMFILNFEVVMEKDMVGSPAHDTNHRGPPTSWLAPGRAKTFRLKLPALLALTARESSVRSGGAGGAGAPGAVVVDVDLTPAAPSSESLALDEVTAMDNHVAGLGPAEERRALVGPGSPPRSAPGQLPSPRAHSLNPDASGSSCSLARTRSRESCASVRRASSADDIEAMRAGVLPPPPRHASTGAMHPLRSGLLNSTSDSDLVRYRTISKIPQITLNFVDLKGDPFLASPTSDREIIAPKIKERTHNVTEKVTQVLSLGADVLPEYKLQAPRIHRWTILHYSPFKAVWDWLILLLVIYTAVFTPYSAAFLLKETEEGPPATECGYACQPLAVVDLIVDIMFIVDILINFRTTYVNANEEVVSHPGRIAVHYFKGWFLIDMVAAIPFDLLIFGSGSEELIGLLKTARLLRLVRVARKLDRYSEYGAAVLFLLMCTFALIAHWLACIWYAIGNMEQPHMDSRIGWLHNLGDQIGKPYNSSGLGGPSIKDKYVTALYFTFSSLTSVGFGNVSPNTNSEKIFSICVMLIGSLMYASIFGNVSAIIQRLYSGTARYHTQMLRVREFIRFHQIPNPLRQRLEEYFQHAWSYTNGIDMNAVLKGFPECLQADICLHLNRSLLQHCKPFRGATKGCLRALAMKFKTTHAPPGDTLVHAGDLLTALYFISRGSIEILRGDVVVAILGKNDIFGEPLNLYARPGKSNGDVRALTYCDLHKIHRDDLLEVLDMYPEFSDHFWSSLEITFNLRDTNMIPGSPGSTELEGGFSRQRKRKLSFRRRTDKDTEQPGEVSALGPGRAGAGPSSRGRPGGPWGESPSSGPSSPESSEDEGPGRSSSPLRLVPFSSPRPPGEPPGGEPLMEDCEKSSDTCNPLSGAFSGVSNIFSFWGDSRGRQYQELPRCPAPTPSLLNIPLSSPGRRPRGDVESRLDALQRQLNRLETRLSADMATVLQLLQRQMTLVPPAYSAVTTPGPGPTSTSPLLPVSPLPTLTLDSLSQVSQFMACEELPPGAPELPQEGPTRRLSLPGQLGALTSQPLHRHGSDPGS

Trypanosoma cruzi = test: Antitrypanosomal activity against Trypanosoma cruzi trypomastigotes infected in mouse 3T3 cells assessed as reduction in parasite growth; assay type: functional, organism-based; conditions: NIH3T3
MDA-MB-231 = test: Antiproliferative activity against human MDA-MB-231 cells assessed as cell growth inhibition at 30 uM relative to control; assay type: functional
MIA PaCa-2 = test: Antiproliferative activity against human MIA PaCa-2 cells assessed as cell growth inhibition at 30 uM relative to control; assay type: functional
SU-DHL10 = test: Antiproliferative activity against human SU-DHL-10 cells assessed as cell growth inhibition at 30 uM relative to control; assay type: functional
[7] = Lipophilicity, logD of the compound at pH 7.4; assay type: physicochemical; conditions: buffer
[8] = Aqueous solubility of compound at pH 7.4; assay type: physicochemical
[9] = Half life in rat hepatocytes; assay type: ADME, cell-based, Hepatocyte
Hepatitis C virus [10] = test: Antiviral activity against HCV GT3a-genotype assessed as inhibition of viral replication; assay type: functional, organism-based, Hepacivirus hominis
Hepatitis C virus [11] = test: Antiviral activity against HCV GT2a-genotype assessed as inhibition of viral replication; assay type: functional, organism-based, Hepacivirus hominis
Hepatitis C virus [12] = test: Antiviral activity against HCV GT4a-genotype assessed as inhibition of viral replication; assay type: functional, organism-based, Hepacivirus hominis
Hepatitis C virus [13] = test: Antiviral activity against HCV GT5a-genotype assessed as inhibition of viral replication; assay type: functional, organism-based, Hepacivirus hominis
Hepatitis C virus [14] = test: microbe, parasite or virus in culture; conditions: GT1a-genotype
Hepatitis C virus [15] = test: microbe, parasite or virus in culture; conditions: GT1b-genotype
[16] = Solubility of the compound; assay type: physicochemical
[17] = Prodrug conversion in rat plasma assessed as esterase mediated intermediate formation by measuring half life; assay type: ADME, cell-free
[18] = Prodrug conversion in rat plasma assessed as formation of Isavuconazole from intermediate by measuring half life; assay type: ADME, cell-free
Influenza A virus = test: Antiviral activity against Influenza A virus A/PR/8/34 (PR8) strain infected in MDCK cells assessed as reduction in viral infection incubated for 72 hrs by crystal violet staining based assay; assay type: functional, organism-based
physchem [19] = conditions: octanol/PBS, pH 7.6
[20] = Lipophilicity, logD of the compound in 1-octanol and phosphate buffer by tandem mass spectrometer analysis; assay type: physicochemical; conditions: 1-octanol/phosphate buffer
Cytochrome P450 3A4 = Cytochrome P450 3A4 (Homo sapiens, UniProt P08684); test: as §1; assay type: ADME
Cytochrome P450 3A4, sequence (P08684 whole entry): as the sequence (P08684 whole entry) above

hERG (KCNH2) = hERG (KCNH2) (Homo sapiens, UniProt Q12809); test: as §2; assay type: toxicity; conditions: human
hERG (KCNH2), sequence (Q12809 whole entry): as the sequence (Q12809 whole entry) above

Vasopressin V1a receptor = Vasopressin V1a receptor (Homo sapiens, UniProt P37288)
Vasopressin V1a receptor, sequence (P37288 whole entry): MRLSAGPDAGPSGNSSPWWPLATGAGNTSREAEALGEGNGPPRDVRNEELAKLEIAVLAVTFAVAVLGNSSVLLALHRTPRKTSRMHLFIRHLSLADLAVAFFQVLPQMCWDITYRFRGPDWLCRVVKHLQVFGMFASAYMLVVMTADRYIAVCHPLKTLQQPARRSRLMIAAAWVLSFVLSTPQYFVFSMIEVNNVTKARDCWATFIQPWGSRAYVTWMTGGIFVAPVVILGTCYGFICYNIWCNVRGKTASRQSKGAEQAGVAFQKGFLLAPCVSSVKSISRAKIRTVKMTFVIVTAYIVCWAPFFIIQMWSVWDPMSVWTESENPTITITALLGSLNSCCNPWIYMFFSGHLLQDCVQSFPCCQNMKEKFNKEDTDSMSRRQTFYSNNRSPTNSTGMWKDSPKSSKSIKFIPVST

[21] = human, microsomes
in vitro [22] = conditions: human, Caco-2
physchem [23] = conditions: buffer, pH 7.4; remark: listed apart in the source
[24] = biological target: T1, Beta-2 adrenergic receptor (Bos taurus, UniProt Q28044); test: Antagonist activity at bovine lung membrane adrenergic beta-2 receptor; assay type: cell membranes
T1 sequence (Q28044 whole entry): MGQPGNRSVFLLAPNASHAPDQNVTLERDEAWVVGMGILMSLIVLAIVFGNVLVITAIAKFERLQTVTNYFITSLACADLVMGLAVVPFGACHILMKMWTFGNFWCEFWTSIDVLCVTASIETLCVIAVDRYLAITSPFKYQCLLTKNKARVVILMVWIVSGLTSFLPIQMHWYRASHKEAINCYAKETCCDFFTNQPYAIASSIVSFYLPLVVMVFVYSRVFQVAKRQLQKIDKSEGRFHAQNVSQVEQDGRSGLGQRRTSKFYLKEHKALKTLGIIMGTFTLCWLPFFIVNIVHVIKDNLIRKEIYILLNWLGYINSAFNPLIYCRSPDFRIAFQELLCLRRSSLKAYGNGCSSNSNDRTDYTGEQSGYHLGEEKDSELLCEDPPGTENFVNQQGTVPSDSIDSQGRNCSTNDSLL

[25] = biological target: T2, Beta-1 adrenergic receptor (Rattus norvegicus, UniProt P18090)
T2 sequence (P18090 whole entry): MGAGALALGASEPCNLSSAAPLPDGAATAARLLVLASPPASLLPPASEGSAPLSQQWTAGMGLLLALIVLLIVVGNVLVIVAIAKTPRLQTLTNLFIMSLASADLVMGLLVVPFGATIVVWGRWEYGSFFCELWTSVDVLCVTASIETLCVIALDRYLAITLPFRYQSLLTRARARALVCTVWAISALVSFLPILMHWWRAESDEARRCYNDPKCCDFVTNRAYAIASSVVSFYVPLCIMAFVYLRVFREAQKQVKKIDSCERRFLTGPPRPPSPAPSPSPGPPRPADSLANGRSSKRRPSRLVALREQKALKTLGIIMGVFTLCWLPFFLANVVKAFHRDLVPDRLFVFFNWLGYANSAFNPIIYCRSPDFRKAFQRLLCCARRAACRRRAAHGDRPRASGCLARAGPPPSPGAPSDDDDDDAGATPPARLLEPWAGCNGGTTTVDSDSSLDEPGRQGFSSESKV

[26] = Inhibition of WNT (unknown origin) by luciferase reporter assay; design: species or system Homo sapiens
[27] = biological target: T1, Beta-2 adrenergic receptor; test: Binding affinity to bovine lung membrane adrenergic beta-2 receptor; assay type: cell membranes
[28] = biological target: T2, Beta-1 adrenergic receptor; remark: listed apart in the source
in vitro [29] = conditions: human, liver microsomes
in vitro [30] = conditions: rat, liver microsomes
in vitro [31] = conditions: mouse, liver microsomes
[32] = Inhibition of human rhinovirus 3C protease; design: species or system Human rhinovirus sp.
Human rhinovirus sp. = test: Inhibition of human rhinovirus 3C protease assessed as kobs/[I]
[33] = Aqueous solubility of compound; assay type: physicochemical
in vitro [34] = conditions: human, liver microsomes; remark: listed apart in the source
[35] = Half life in human plasma; assay type: ADME, cell-free
[36] = biological target: Polymerase acidic protein (Influenza A virus (A/Puerto Rico/8/1934(H1N1)), UniProt P03433)
in vitro [37] = conditions: human, Caco-2; remark: listed apart in the source

COCCn1c(SC)nc(-c2ccc(F)cc2)c1-c1cccc(NC(=O)CCc2cccc(OC)c2)c1
IC50 [1]: 93 nM
solubility (physchem [2]): 0.275 µg/mL (≈ 0.529 µM)

O=C(NCCS(=O)(=O)c1ccc(C(F)(F)F)cn1)c1ccc(-c2ccccc2)cc1
solubility [3]: < 0.004 µM
solubility [4]: < 0.004 µM
CLhep predicted [5]: 39 mL/min/kg
IC50 (CYP3A4): > 20000 nM
IC50 [6]: > 30000 nM

O=C(Cn1ccnc1[N+](=O)[O-])NCC1=C/C=C\C=C/C=C\1
EC50 (Trypanosoma cruzi): 2300 nM

Oc1ccc(/C=C/c2cc(O)cc(O)c2)cc1 [RESVERATROL]
inhibition at 30 µM (MDA-MB-231): 20%
inhibition at 30 µM (MIA PaCa-2): 30%
inhibition at 30 µM (SU-DHL10): 46%
logD [7]: 2.9
solubility [8]: 19 µg/mL (≈ 83.2 µM)
half-life [9]: < 7.5 min

COC(=O)N[C@H](C(=O)N1CCC[C@H]1c1nc2cc(-c3csc4c(-c5ccc(-c6c[nH]c([C@@H]7CCCN7C(=O)[C@H](NC(=O)OC)c7ccccc7)n6)cc5)csc34)ccc2[nH]1)C(C)C
EC50 (Hepatitis C virus [10]): 0.1 nM
EC50 (Hepatitis C virus [11]): 0.002 nM
EC50 (Hepatitis C virus [12]): 0.002 nM
EC50 (Hepatitis C virus [13]): 0.002 nM
EC50 (Hepatitis C virus [14]): 0.002 nM
EC50 (Hepatitis C virus [15]): 0.002 nM

CNCC(=O)OCc1cccnc1N(C)C(=O)OC(C)[n+]1cnn(C[C@](O)(c2cc(F)ccc2F)[C@H](C)c2nc(-c3ccc(C#N)cc3)cs2)c1 (some centres undefined)
solubility [16]: > 100000 µg/mL
t1/2 [17]: < 1 min
t1/2 [18]: < 1 min

O=C(O)/C(O)=C/C(=O)C1CCCCC1
IC50 (Influenza A virus): 29400 nM

O=C(CCCCCCC(=O)Nc1ccccc1)NO [VORINOSTAT]
logD (physchem [19]): 0.99

O=C(Cc1ccc(B2C=CC=CN2)cc1)Nc1cc(C2CC2)[nH]n1
solubility [3]: 0.013 µM (≈ 4.14 ng/mL)
solubility [4]: 0.03 µM (≈ 9.55 ng/mL)
logD [20]: 3.9
CLhep predicted [5]: 48 mL/min/kg
IC50 (Cytochrome P450 3A4): > 20000 nM
IC50 (hERG (KCNH2)): > 30000 nM

Clc1cnc2n1CCCc1nnc([C@H]3CC[C@H](Oc4ccccn4)CC3)n1-2
Ki (Vasopressin V1a receptor): 14 nM
CLH [21]: 1 µL/min/mg
Papp A→B (in vitro [22]): 41 ×10⁻⁶ cm/s
solubility kinetic (physchem [23]): 49.6 µM (≈ 19100 ng/mL)

Oc1cc(O)cc(/C=C/C23CC(O)(C2)C3)c1
inhibition at 30 µM (MDA-MB-231): 22%
inhibition at 30 µM (MIA PaCa-2): 30%
inhibition at 30 µM (SU-DHL10): 41%
logD [7]: 1.9
solubility [8]: 619 µg/mL (≈ 2840 µM)
half-life [9]: 24 min

CC/C=N/OCC(O)CNC(C)(C)C (centres undefined)
IC50 [24]: 1550 nM
IC50 [25]: 26300 nM

CC(C)NCC(O)c1ccc(Cl)c(Cl)c1 (centres undefined) [DICHLOROISOPROTERENOL]
IC50 [24]: 977 nM
IC50 [25]: 115 nM

Cc1cc(-c2ccc(CNC(=O)c3ccc(-c4cnccn4)cc3)cc2)ccn1
EC50 [26]: 0.7 nM

COC(=O)N[C@@H](C(=O)N1CCC[C@@H]1c1ncc(-c2csc3c(-c4cnc([C@H]5CCCN5C(=O)[C@H](NC(=O)OC)C(C)C)[nH]4)csc23)[nH]1)C(C)C
EC50 (Hepatitis C virus [10]): 0.1 nM
EC50 (Hepatitis C virus [11]): < 0.1 nM
EC50 (Hepatitis C virus [12]): < 0.1 nM
EC50 (Hepatitis C virus [14]): < 0.1 nM

CCO/N=C/C(O)CNC(C)(C)C (centres undefined)
Ki [27]: 850 nM
IC50 [24]: 269 nM
Ki [28]: 850 nM
IC50 [25]: 8320 nM

Clc1cnc2n1CCCc1nnc(C3CCN(c4ccccn4)CC3)n1-2
Ki (Vasopressin V1a receptor): 140 nM
microsomal CLint (in vitro [29]): 4 µL/min/mg
microsomal CLint (in vitro [30]): 32 µL/min/mg
microsomal CLint (in vitro [31]): 33 µL/min/mg
solubility kinetic (physchem [23]): 93.8 µM (≈ 34700 ng/mL)

CCOC(=O)/C=C/[C@H](C[C@@H]1CCNC1=O)NC(=O)[C@H](Cc1ccc(F)c(F)c1)n1cccc(NC(=O)c2cc(C)on2)c1=O
EC50 [32]: 11 nM
Ratio (Human rhinovirus sp.): 1.8e+06 M/s
solubility [33]: 25 µg/mL (≈ 40.9 µM)
remaining at 0.5 h (in vitro [34]): 19%
Papp A→B (in vitro [22]): 35 ×10⁻⁶ cm/s

COCCn1c(SC)nc(-c2ccc(F)cc2)c1-c1cccc(NC(=O)CCc2ccc(OC)cc2)c1
IC50 [1]: 48 nM
solubility (physchem [2]): 0.0473 µg/mL (≈ 0.091 µM)

Cc1cc(-c2ccc(CNC(=O)C34CC(c5cnccn5)(C3)C4)cc2)ccn1
EC50 [26]: > 50 nM

O=C(Cn1ccnc1[N+](=O)[O-])NCc1ccccc1 [BENZNIDAZOLE]
EC50 (Trypanosoma cruzi): 6100 nM

C#CC[C@@H](C(=O)N[C@H](/C=C/C(=O)OCC)C[C@@H]1CCNC1=O)n1cccc(NC(=O)c2cc(C)on2)c1=O [IMOCITRELVIR]
EC50 [32]: 58 nM
Ratio (Human rhinovirus sp.): 223000 M/s
half-life [35]: 396 min
solubility [33]: 377 µg/mL (≈ 720 µM)
remaining at 0.5 h (in vitro [34]): 60%
Papp A→B (in vitro [22]): 6 ×10⁻⁶ cm/s

CNCC(=O)OCc1ccccc1N(C)C(=O)OC(C)[n+]1cnn(C[C@](O)(c2cc(F)ccc2F)[C@H](C)c2nc(-c3ccc(C#N)cc3)cs2)c1 (some centres undefined)
solubility [16]: 1000 µg/mL
t1/2 [17]: < 2 min
t1/2 [18]: 13 min

CCN1CCC(Cc2ccc(Cl)cc2)(C(=O)/C=C(\O)C(=O)O)CC1
IC50 (Influenza A virus): 1100 nM
Ki [36]: 90 nM

O=C(NCCS(=O)(=O)c1ccc(C(F)(F)F)cn1)c1ccc(B2C=CC=CN2)cc1
solubility [3]: < 0.004 µM
solubility [4]: 0.006 µM (≈ 2.61 ng/mL)
logD [20]: 3.5
CLhep predicted [5]: 53 mL/min/kg
IC50 (Cytochrome P450 3A4): > 20000 nM
IC50 [6]: > 30000 nM

O=C(Cc1ccc(-c2ccccc2)cc1)Nc1cc(C2CC2)[nH]n1
solubility [3]: < 0.004 µM
solubility [4]: 0.006 µM (≈ 1.9 ng/mL)
logD [20]: 4.4
CLhep predicted [5]: 48 mL/min/kg
IC50 (CYP3A4): > 20000 nM
IC50 (hERG (KCNH2)): > 30000 nM

COC(=O)N[C@@H](C(=O)N1CCC[C@@H]1c1ncc(-c2cc3sc(-c4cnc([C@H]5CCCN5C(=O)[C@H](NC(=O)OC)C(C)C)[nH]4)cc3s2)[nH]1)C(C)C
EC50 (Hepatitis C virus [14]): 10 nM
EC50 (Hepatitis C virus [15]): < 1 nM

Clc1ccc2c(c1)CCCc1nnc(C3CCN(c4ccccn4)CC3)n1-2
efflux ratio (in vitro [37]): 1
solubility kinetic (physchem [23]): 8.9 µM (≈ 3380 ng/mL)

COc1ccccc1N1CCN(CCCCNC(=O)c2ccc(-c3ccccc3)cc2)CC1
solubility [3]: < 0.005 µM
solubility [4]: 0.021 µM (≈ 9.32 ng/mL)
CLhep predicted [5]: 51 mL/min/kg
IC50 (CYP3A4): > 20000 nM
